# Data as given in patent US20090054501A1, “AZOLE COMPOUNDS USED AS TUBERCULOSTATIC AND LEISHMANICIDE AGENTS” (priority 2005, published 2009).
# Values joined by “and” are separate entries in the source; they are usually repeats but may differ in a detail not shown here. Identical values can stand only once. Like-named read-outs stand apart in the source and are kept apart here.
# Assays:
# [1] = test system: Mycobacterium tuberculosis H37Rv (ATCC-27294); experiment: MIC by MABA (Microplate Alamar Blue Assay), in vitro antimicrobial activity; format: cell-based; conditions: for Inhibition (%): Table 2, M. tuberculosis H37Rv (ATCC 27294), concentration not given
# [2] = test system: promastigote forms of Leishmania amazonensis; experiment: Leishmanicide evaluation in vitro, live parasites counted by fluorescence; format: cell-based; conditions: L. amazonensis promastigotes, read-out: Percentage of parasitic inhibition; for inhibition at 160 µg/mL: concentration 160 μg/mL; for inhibition at 10 µg/mL: concentration 10 μg/mL
# Experimental: The evaluation of the leishmanicide activity of the type I and II 1,2,3-triazole derivatives was made through in vitro essays against promastigote forms of Leishmania amazonensis, and after the incubation with compounds, live parasites are counted by fluorescence, thus obtaining as a result, the percentage of inhibition of the compounds evaluated.
# Essays were performed in triplicate using pentamidine as a positive pattern with a 160 μg/mL concentration.
# The evaluation of the leishmanicide activity of type I (Formula XII) and II (Formula XIII) imidazole derivatives was performed through in vitro essays against promastigote forms of Leishmania amazonensis, and after the incubation with compounds, live parasites are counted by fluorescence, thus obtaining as a result the inhibition percentage of the evaluated compounds.
# Essays were performed in triplicate using pentamidine as a positive pattern with a 160 μg/mL concentration, determining which compounds evaluated inhibited the parasite in lower concentrations and the percentage higher than the pattern. Table 6 lists the results obtained in the leishmanicide evaluation of derivatives 140a 148a 146a, 149a.
# [3] = 1,2,3-triazole derivatives types I-III and rifampicin comparison pattern, M. tuberculosis H37Rv, MABA
# [4] = Table 2, type I and II 1,2,3-triazoles, M. tuberculosis H37Rv (ATCC 27294), MABA
# [5] = Mycobacterium tuberculosis, Table 2, type I and II 1,2,3-triazoles, M. tuberculosis H37Rv (ATCC 27294), MABA, read-out: MIC
# [6] = Mycobacterium tuberculosis, 1,2,3-triazole derivatives types I-III and rifampicin comparison pattern, M. tuberculosis H37Rv, MABA, read-out: MIC
# [7] = Mycobacterium tuberculosis, Table 4, type I (Formula XII) imidazole derivatives, read-out: MIC
# [8] = Mycobacterium tuberculosis, Table 5, type II (Formula XIII) imidazole derivatives, read-out: MIC
smiles,measurement,setting,value
"O=Cc1cn(-c2ccc(Cl)cc2)nn1 [114a, 4-carboxaldehyde-1-(4-chlorophenyl)-1H-1,2,3-triazole]",MIC,[1]; [3],5 µg/mL and 5.0 µg/mL
same,MIC (μg/mL),[1]; [4],"5,0 μg/mL"
"O=Cc1cn(-c2ccc(Br)cc2)nn1 [114b, 4-carboxaldehyde-1-(4-bromophenyl)-1H-1,2,3-triazole]",MIC,[1]; [3],5.0 µg/mL
same,MIC (μg/mL),[1]; [4],"5,0 μg/mL"
"Cc1ccc(-n2cc(C=O)nn2)cc1 [114c, 4-carboxaldehyde-1-(4-methylphenyl)-1H-1,2,3-triazole]",MIC,[1]; [3],2.5 µg/mL
same,MIC (μg/mL),[1]; [4],"2,5 μg/mL"
"COc1ccc(-n2cc(C=O)nn2)cc1 [114d, 4-carboxaldehyde-1-(4-methoxyphenyl)-1H-1,2,3-triazole]",MIC (μg/mL),[1]; [4],"10,0 μg/mL"
"COc1ccc(OC)c(-n2cc(C=O)nn2)c1 [114e, 4-carboxaldehyde-1-(2,5-dimethoxyphenyl)-1H-1,2,3-triazole]",MIC (μg/mL),[1]; [4],"80,0 μg/mL"
"O=Cc1cn(-c2cccc(Cl)c2)nn1 [114f, 4-carboxaldehyde-1-(3-chlorophenyl)-1H-1,2,3-triazole]",inhibition at 320 µg/mL,[2]; concentration 320 μg/mL,72%
same,MIC,[1]; [5],10 µg/mL
same,Inhibition (%),[1],100%
"O=Cc1cn(-c2cc(Cl)cc(Cl)c2)nn1 [114g, 4-carboxaldehyde-1-(3,5-dichlorophenyl)-1H-1,2,3-triazole]",MIC,[1]; [3],2.5 µg/mL
same,MIC (μg/mL),[1]; [4],"2,5 μg/mL"
"N#Cc1cccc(-n2cc(C=O)nn2)c1 [114h, 4-carboxaldehyde-1-(3-cyanophenyl)-1H-1,2,3-triazole]",MIC (μg/mL),[1]; [4],"20,0 μg/mL"
"N#Cc1ccc(-n2cc(C=O)nn2)cc1 [114i, 4-carboxaldehyde-1-(4-cyanophenyl)-1H-1,2,3-triazole]",MIC,[1]; [3],5.0 µg/mL
same,MIC (μg/mL),[1]; [4],"5,0 μg/mL"
"O=Cc1cn(-c2ccc([N+](=O)[O-])cc2)nn1 [114j, 4-carboxaldehyde-1-(4-nitrophenyl)-1H-1,2,3-triazole]",inhibition at 160 µg/mL,[2],11%
same,MIC,[1]; [6],20 µg/mL
"COc1ccccc1-n1cc(C=O)nn1 [114l, 4-carboxaldehyde-1-(2-methoxyphenyl)-1H-1,2,3-triazole]",MIC (μg/mL),[1]; [4],"40,0 μg/mL"
"COc1ccc(-n2cc(C=O)nn2)cc1OC [114m, 4-carboxaldehyde 1-(3,4-dimethoxyphenyl)-1H-1,2,3-triazole]",MIC (μg/mL),[1]; [4],"80,0 μg/mL"
"FC(F)c1cn(-c2ccc(Cl)cc2)nn1 [121a, 1-(4-chlorophenyl)-4-difluoromethyl-1H-1,2,3-triazole]",MIC,[1]; Mycobacterium tuberculosis,40 µg/mL
same,MIC (μg/mL),[1]; [4],"40,0 μg/mL"
"FC(F)c1cn(-c2ccc(Br)cc2)nn1 [121b, 1-(4-bromophenyl)-4-difluoromethyl-1H-1,2,3-triazole]",MIC,[1]; [5],20 µg/mL
same,Inhibition (%),[1],75%
"Cc1ccc(-n2cc(C(F)F)nn2)cc1 [121c, 1-(4-methylphenyl)-4-difluoromethyl-1H-1,2,3-triazole]",MIC,[1]; [5],40 µg/mL
same,Inhibition (%),[1],87%
"COc1ccc(-n2cc(C(F)F)nn2)cc1 [121d, 1-(4-methoxyphenyl)-4-difluoromethyl-1H-1,2,3-triazole]",MIC,[1]; [5],10 µg/mL
same,Inhibition (%),[1],93%
"COc1ccc(OC)c(-n2cc(C(F)F)nn2)c1 [121e, 1-(2,5-dimethoxyphenyl)-4-difluoromethyl-1H-1,2,3-triazole]",MIC,[1]; [5],80 µg/mL
same,Inhibition (%),[1],74%
"FC(F)c1cn(-c2cccc(Cl)c2)nn1 [121f, 1-(3-chlorophenyl)-4-difluoromethyl-1H-1,2,3-triazole]",inhibition at 10 µg/mL,[2],93%
same,MIC,[1]; [5],80 µg/mL
same,Inhibition (%),[1],54%
"FC(F)c1cn(-c2cc(Cl)cc(Cl)c2)nn1 [121g, 1-(3,5-dichlorophenyl)-4-difluoromethyl-1H-1,2,3-triazole]",MIC,[1]; [5],80 µg/mL
same,Inhibition (%),[1],55%
"N#Cc1cccc(-n2cc(C(F)F)nn2)c1 [121h, 1-(3-cyanophenyl)-4-difluoromethyl-1H-1,2,3-triazole]",MIC,[1]; [5],80 µg/mL
"N#Cc1ccc(-n2cc(C(F)F)nn2)cc1 [121i, 1-(4-cyanophenyl)-4-difluoromethyl-1H-1,2,3-triazole]",MIC,[1]; [5],20 µg/mL
"O=[N+]([O-])c1ccc(-n2cc(C(F)F)nn2)cc1 [121j, 1-(4-nitrophenyl)-4-difluoromethyl-1H-1,2,3-triazole]",MIC,[1]; [6],40 µg/mL
"COc1ccc(-n2cc(C(F)F)nn2)cc1OC [121m, 1-(3,4-dimethoxyphenyl)-4-difluoromethyl-1H-1,2,3-triazole]",MIC,[1]; [5],80 µg/mL
same,Inhibition (%),[1],66%
CCOC(=O)c1ncn(-c2ccc(C)cc2)c1N(C(=O)c1ccc(F)cc1)C(=O)c1ccc(F)cc1 [140a],inhibition at 10 µg/mL,[2],79%
CCOC(=O)c1ncn(-c2ccc(C#N)cc2)c1N(C(=O)c1ccc(F)cc1)C(=O)c1ccc(F)cc1 [140b],MIC,[1]; [7],1.2 µg/mL
CCOC(=O)c1ncn(-c2ccc(C)cc2)c1N(C(=O)c1ccccc1F)C(=O)c1ccccc1F [146a],inhibition at 80 µg/mL,[2]; concentration 80 μg/mL,75%
same,MIC,[1]; [7],3 µg/mL
CCOC(=O)c1ncn(-c2ccc(Cl)cc2)c1N(C(=O)c1ccccc1F)C(=O)c1ccccc1F [146c],MIC,[1]; [7],3 µg/mL
CCOC(=O)c1ncn(-c2c(F)cccc2F)c1N(C(=O)c1ccccc1F)C(=O)c1ccccc1F [146e],MIC,[1]; [7],3 µg/mL
"CCOC(=O)c1ncn(-c2ccc(C)cc2)c1NC(=O)c1ccc(F)cc1 [148a, Ester ethyl 5-[(4-fluorobenzoic)amino]-1-(4-methylphenyl)-1H-imidazole-4-carboxylate]",inhibition at 10 µg/mL,[2],90%
same,MIC,[1]; [8],3 µg/mL
"CCOC(=O)c1ncn(-c2ccc(C)cc2)c1NC(=O)c1ccccc1F [149a, Ester ethyl 5-[(2-fluorobenzoic)amino]-1-(4-methylphenyl)-1H-imidazole-4-carboxylate]",inhibition at 160 µg/mL,[2],93%
"CCOC(=O)c1ncn(-c2ccc(C#N)cc2)c1NC(=O)c1ccccc1F [149b, Ester ethyl 1-(4-cyanophenyl)-5-[(2-fluorobenzoic)amino]-1H-imidazole-4-carboxylate]",MIC,[1]; [8],3 µg/mL
"CCOC(=O)c1ncn(-c2ccc(Cl)cc2)c1NC(=O)c1ccccc1F [149c, Ester ethyl 1-(4-chlorophenyl)-5-[(2-fluorobenzoic)amino]-1H-imidazole-4-carboxylate]",MIC,[1]; [8],3 µg/mL
"N=C(N)c1ccc(OCCCCCOc2ccc(C(=N)N)cc2)cc1 [Pentamidine, pentamidine, reference compound]",inhibition at 160 µg/mL,[2],53%
"CO[C@H]1/C=C/O[C@@]2(C)Oc3c(C)c(O)c4c(O)c(c(/C=N/N5CCN(C)CC5)c(O)c4c3C2=O)NC(=O)/C(C)=C\C=C\[C@H](C)[C@H](O)[C@@H](C)[C@@H](O)[C@@H](C)[C@H](OC(C)=O)[C@@H]1C [Rifampicin, rifampicin, reference compound]",MIC,[1]; [3],1.0 µg/mL
same,MIC,"[1]; Mycobacterium tuberculosis, imidazole derivatives and rifampicin comparison pattern, M. tuberculosis H37Rv, MABA, read-out: MIC",1 µg/mL
same,MIC (μg/mL),[1]; [4],"1,0 μg/mL"
"Clc1ccc(/N=C/c2cn(-c3ccc(Cl)cc3)nn2)cc1 [compound 119, (E)-4-chloride-N-((1-(4-chlorophenyl)-1H-1,2,3-triazole-4-il)methylene) benzenamine]",MIC,[1]; [3],40 µg/mL
"Brc1ccc(/N=C/c2cn(-c3ccc(Br)cc3)nn2)cc1 [compound 120, (E)-4-bromo-N-((1-(4-bromophenyl)-1H-1,2,3-triazole-4-il)methylene) benzenamine]",MIC,[1]; [3],20 µg/mL
